These results are taken from PubChem BioAssay AID2042 (NMMLSC, 2009).

The source made the active and inactive calls.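 The calls were made as follows: active = EC50 at most 30 µM plus a dose-response curve spanning at least 25% response; inactive = the rest.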 Where only a bound is given, the exact number is not on record here.

The first test deals with GTPase HRas (Homo sapiens) (UniProt P01112). Nature of the test: activated Ras GTP binding inhibitors, SAR follow-up, biochemical, oxadiazole analogs, activated mutant, multiplex flow cytometry (AID 2042). Conditions: GST-Ras beads, Bodipy-FL-GTP binding. (A flow cytometer gives signals particle by particle.)
Sequence of GTPase HRas (Homo sapiens) (P01112 whole entry, looked up): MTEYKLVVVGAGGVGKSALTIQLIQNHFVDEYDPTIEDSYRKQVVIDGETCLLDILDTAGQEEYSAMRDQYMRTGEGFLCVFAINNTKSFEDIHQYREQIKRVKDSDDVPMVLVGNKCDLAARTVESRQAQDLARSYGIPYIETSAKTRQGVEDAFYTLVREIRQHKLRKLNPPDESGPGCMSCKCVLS
Regarding `COc1ccc(-c2noc(CCC(=O)N3CCN(c4ccc(C(F)(F)F)cc4)CC3)n2)cc1`, the EC50 is > 30 µM (inactive).

Take `COc1ccc(-c2ccc(CCC(=O)N3CCN(c4cc(C)ccc4C)CC3)[nH]2)cc1`: the EC50 is > 30 µM (inactive).

Take `COc1ccc(-c2noc(CCC(=O)N3CCN(c4cccc(F)c4)CC3)n2)cc1`: the EC50 is > 30 µM (inactive).

For the compound `COc1ccc(-c2coc(CCC(=O)N3CCN(c4cc(C)ccc4C)CC3)n2)cc1`, the EC50 was > 30 µM (inactive).

Consider `COc1ccc(-c2noc(CCCCC(=O)N3CCN(c4cc(C)ccc4C)CC3)n2)cc1`, for which the EC50 is > 30 µM (inactive). On the same count and under the same terms, the value for `COc1ccc(-c2noc(CCC(=O)N3CCN(c4ccc(OC)cc4)CC3)n2)cc1` was > 30 µM (inactive); that for `Cc1ccc(C)c(N2CCN(C(=O)CCc3nc(-c4ccc(C(F)(F)F)cc4)no3)CC2)c1` was > 30 µM (inactive); that for `COc1ccc(-c2noc(CCC(=O)N3CCN(c4ccc(Cl)cc4)CC3)n2)cc1` was > 30 µM (inactive). On the same count and under the same terms, as for `COc1ccc(-c2ccc(CCC(=O)N3CCN(c4cc(C)ccc4C)CC3)s2)cc1`, the figure is > 30 µM (inactive); as for `Cc1ccc(C)c(N2CCN(C(=O)CCc3nc(-c4ccc(F)cc4)no3)CC2)c1`, > 30 µM (inactive); as for `COc1ccc(-c2noc(CCC(=O)N3CCN(c4ccc(F)cc4)CC3)n2)cc1`, > 30 µM (inactive).

For the compound `Cc1ccc(C)c(N2CCN(C(=O)CCc3nc(-c4ccccc4F)no3)CC2)c1`, the EC50 was > 30 µM (inactive).

`COc1ccc(-c2noc(CCC(=O)N3CCC(c4cc(C)ccc4C)CC3)n2)cc1`: the EC50 was > 30 µM (inactive). On the same count and under the same terms, the value for `Cc1ccc(C)c(N2CCN(C(=O)CCc3nc(-c4ccc(Cl)cc4)no3)CC2)c1` was > 30 µM (inactive); that for `COc1ccc(-c2cccc(CCC(=O)N3CCN(c4cc(C)ccc4C)CC3)c2)cc1` was > 30 µM (inactive). Same read-out and setting: the value for `COc1ccc(-c2ccc(CCC(=O)N3CCN(c4cc(C)ccc4C)CC3)o2)cc1` was > 30 µM (inactive); that for `Cc1ccc(C)c(N2CCN(C(=O)CCc3nc(-c4ccccc4Br)no3)CC2)c1` was > 30 µM (inactive). Still for that read-out and setting: the value for `COc1ccc(-c2noc(CCC(=O)N3CCN(c4ccc(C)cc4)CC3)n2)cc1` was > 30 µM (inactive); that for `Cc1ccc(C)c(N2CCN(C(=O)CCc3nc(-c4cccc(Br)c4)no3)CC2)c1` was > 30 µM (inactive). For the compound `COc1ccc(-c2noc(CCC(=O)N3CCN(c4ccccc4C)CC3)n2)cc1`, the EC50 is > 30 µM (inactive). On the same count and under the same terms, as for `Cc1ccc(C)c(N2CCN(C(=O)CCc3nc(-c4ccc(N(C)C)cc4)no3)CC2)c1`, the figure is > 30 µM (inactive); as for `COc1ccc(-c2noc(CCC(=O)N3CCN(c4ccccc4Cl)CC3)n2)cc1`, > 30 µM (inactive). Same read-out and setting: as for `Cc1ccc(-c2noc(CCC(=O)N3CCN(c4cc(C)ccc4C)CC3)n2)cc1`, the figure is > 30 µM (inactive); as for `COc1ccc(-c2noc(CCC(=O)N3CCN(c4cccc(C)c4)CC3)n2)cc1`, > 30 µM (inactive). Take `COc1ccccc1-c1noc(CCC(=O)N2CCN(c3cc(C)ccc3C)CC2)n1`: the EC50 was > 30 µM (inactive). For the compound `Cc1ccc(C)c(N2CCN(C(=O)CCc3nc(-c4cccc(Cl)c4)no3)CC2)c1`, the EC50 is > 30 µM (inactive).

Take `Cc1cccc(-c2noc(CCC(=O)N3CCN(c4cc(C)ccc4C)CC3)n2)c1`: the EC50 was > 30 µM (inactive). On the same count and under the same terms, the value for `COc1ccc(-c2noc(CCC(=O)N3CCN(c4cccc(C)c4C)CC3)n2)cc1` was > 30 µM (inactive); that for `COc1ccc(-c2noc(CCC(=O)N3CCN(c4ccc(Br)cc4)CC3)n2)cc1` was > 30 µM (inactive). On to `COc1ccc(-c2noc(CCC(=O)N3CCN(c4ccccc4F)CC3)n2)cc1`, for which the EC50 result was “inactive”. As to `COc1ccc(-c2noc(CCC(=O)N3CCN(c4cccc(C(F)(F)F)c4)CC3)n2)cc1`, the EC50 was > 30 µM (inactive).

As for `Cc1ccc(C)c(N2CCN(C(=O)CCc3nc(-c4ccccc4)no3)CC2)c1`, the EC50 is > 30 µM (inactive).

In the case of `COc1cccc(-c2noc(CCC(=O)N3CCN(c4cc(C)ccc4C)CC3)n2)c1`, the EC50 result was “inactive”. Same read-out and setting: as for `Cc1ccc(C)c(N2CCN(C(=O)CCc3nc(-c4cccc(C(F)(F)F)c4)no3)CC2)c1`, the figure is > 30 µM (inactive). With `COc1ccc(-c2cc(CCC(=O)N3CCN(c4cc(C)ccc4C)CC3)on2)cc1`, the EC50 is > 30 µM (inactive). The same measure, in the same setting: as for `COc1ccc(-c2noc(CCC(=O)N3CCN(c4cccc(Cl)c4)CC3)n2)cc1`, the figure is > 30 µM (inactive); as for `COc1ccc(-c2noc(CCC(=O)N3CCN(c4ccccc4OC)CC3)n2)cc1`, > 30 µM (inactive); as for `COc1ccc(-c2noc(CCC(=O)N3CCN(c4cccc(Br)c4)CC3)n2)cc1`, > 30 µM (inactive). Same read-out and setting: as for `Cc1ccc(C)c(N2CCN(C(=O)CCc3nc(-c4cccc(F)c4)no3)CC2)c1`, the figure is > 30 µM (inactive); as for `COc1ccc(-c2noc(CCCC(=O)N3CCN(c4cc(C)ccc4C)CC3)n2)cc1`, > 30 µM (inactive). Still for that read-out and setting: the value for `COc1ccc(-c2noc(CCC(=O)N3CCN(c4cc(C)ccc4C)CC3)n2)cc1` was “inactive”; that for `Cc1ccc(C)c(N2CCN(C(=O)CCc3nc(-c4ccc(Br)cc4)no3)CC2)c1` was > 30 µM (inactive); that for `Cc1ccc(C)c(N2CCN(C(=O)CCc3nc(-c4ccccc4C(F)(F)F)no3)CC2)c1` was > 30 µM (inactive). `COc1ccc(-c2noc(CCC(=O)N3CCN(c4ccccc4)CC3)n2)cc1`: the EC50 is > 30 µM (inactive).

`COc1ccc(-c2noc(CCC(=O)N3CCN(c4cccc(OC)c4)CC3)n2)cc1`: the EC50 was > 30 µM (inactive).

Take `Cc1ccc(C)c(N2CCN(C(=O)CCc3nc(-c4ccccc4Cl)no3)CC2)c1`: the EC50 is > 30 µM (inactive). Same read-out and setting: the value for `COc1ccc(-c2noc(CCC(=O)N3CCN(c4ccccc4Br)CC3)n2)cc1` was > 30 µM (inactive); that for `COc1ccc(-c2noc(CC(=O)N3CCN(c4cc(C)ccc4C)CC3)n2)cc1` was > 30 µM (inactive). Same read-out and setting: as for `COc1ccc(-c2cc(CCC(=O)N3CCN(c4cc(C)ccc4C)CC3)[nH]n2)cc1`, the figure is > 30 µM (inactive); as for `Cc1ccc(C)c(N2CCN(C(=O)CCc3nc(-c4ccccc4C)no3)CC2)c1`, > 30 µM (inactive). Same read-out and setting: as for `COc1ccc(-c2noc(CCC(=O)N3CCN(c4ccccc4C(F)(F)F)CC3)n2)cc1`, the figure is > 30 µM (inactive).

The test is the same for the next values; noted with them: GST-Ras beads, Bodipy-FL-GTP binding, measured here: Ki calculated from EC50.
As to `COc1ccc(-c2noc(CCC(=O)N3CCN(c4ccccc4F)CC3)n2)cc1`, the Ki is 0.06 µM. The same measure, in the same setting: as for `COc1cccc(-c2noc(CCC(=O)N3CCN(c4cc(C)ccc4C)CC3)n2)c1`, the figure is 0.28 µM; as for `COc1ccc(-c2noc(CCC(=O)N3CCN(c4cc(C)ccc4C)CC3)n2)cc1`, 0.12 µM.

A word on the EC50: it is the midpoint of the concentration-response curve. A word on the Ki: it is a dissociation constant, usually derived from enzyme kinetics or from competition with a known ligand.
